Results on four compounds are retold here after ChEMBL document CHEMBL1255548, “Novel bisphosphonate inhibitors of the human farnesyl pyrophosphate synthase” (Bioorg Med Chem Lett, 2010).

Bounds are passed on as bounds.

Assay [1] deals with T1, Farnesyl pyrophosphate synthase (Homo sapiens) (UniProt P14324).
T1 sequence (whole entry): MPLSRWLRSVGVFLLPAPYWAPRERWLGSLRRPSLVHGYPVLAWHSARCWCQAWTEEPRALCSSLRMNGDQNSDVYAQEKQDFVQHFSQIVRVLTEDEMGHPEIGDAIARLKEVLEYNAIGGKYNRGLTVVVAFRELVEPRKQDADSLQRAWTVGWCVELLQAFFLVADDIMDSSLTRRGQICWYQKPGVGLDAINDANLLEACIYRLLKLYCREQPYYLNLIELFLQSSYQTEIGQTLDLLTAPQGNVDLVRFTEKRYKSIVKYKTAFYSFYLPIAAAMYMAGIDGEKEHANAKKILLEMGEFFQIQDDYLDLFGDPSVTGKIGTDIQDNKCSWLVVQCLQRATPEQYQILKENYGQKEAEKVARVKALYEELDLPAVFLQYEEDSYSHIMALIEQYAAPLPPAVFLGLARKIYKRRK
Description: Inhibition of N-terminal His-tagged human FPPS expressed in Escherichia coli at 10 uM.

Assay [2] addresses T2, Farnesyl pyrophosphate synthase (Homo sapiens, UniProt P14324).
T2 sequence (P14324 whole entry): T1 sequence (whole entry)
Description: Inhibition of N-terminal His-tagged human FPPS expressed in Escherichia coli.

Assay [3] deals with T1, Farnesyl pyrophosphate synthase (Homo sapiens). The assay is described as follows: Inhibition of N-terminal His-tagged human FPPS expressed in Escherichia coli at 1 uM.

On to `Cc1noc(C)c1-c1cncc(CC(F)(P(=O)(O)O)P(=O)(O)O)c1`, for which the inhibition in assay [1] amounted to 86%.
Still for that read-out and setting: in the case of `O=P(O)(O)C(F)(Cc1cncc(-c2cccc3[nH]ncc23)c1)P(=O)(O)O` it was 81%.
`O=P(O)(O)C(F)(Cc1cncc(-c2ccc3[nH]ncc3c2)c1)P(=O)(O)O` came in with an IC50 in assay [2] of 700 nM. In assay [3], this compound returned an inhibition of over 50%.
For `O=P(O)(O)C(F)(Cc1cncc(-c2cn[nH]c2)c1)P(=O)(O)O`, in that order: 650 nM and over 50%.

For orientation: inhibition means the share of the control response that was lost under treatment. Read a high inhibition as a response far below the control. For orientation: IC50 means the midpoint of a concentration-inhibition curve. A high value points to weaker potency.
